# Assay results: patent US7217702B2, “Selective antagonists of A2A adenosine receptors” (Adenosine Therapeutics, LLC, priority 2004, dated 2007)
# Biological target: A2A adenosine receptor (Homo sapiens, UniProt P29274)
# Test: Human Ki of the compound tables
# Format: binding
# Conditions: receptor subtype not given
# A2A adenosine receptor, sequence (P29274 whole entry): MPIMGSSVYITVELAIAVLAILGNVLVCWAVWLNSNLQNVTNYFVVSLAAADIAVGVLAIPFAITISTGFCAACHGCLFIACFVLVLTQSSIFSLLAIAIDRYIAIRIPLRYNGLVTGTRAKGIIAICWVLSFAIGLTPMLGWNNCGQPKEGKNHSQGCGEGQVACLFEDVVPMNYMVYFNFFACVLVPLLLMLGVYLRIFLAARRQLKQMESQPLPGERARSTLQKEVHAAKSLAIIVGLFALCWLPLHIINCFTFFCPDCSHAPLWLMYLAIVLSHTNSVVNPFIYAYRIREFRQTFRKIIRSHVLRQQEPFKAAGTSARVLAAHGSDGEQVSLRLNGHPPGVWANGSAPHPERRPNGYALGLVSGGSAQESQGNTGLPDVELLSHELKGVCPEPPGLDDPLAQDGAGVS
row,Structure (SMILES),Ki [µM]
1,"C#CCn1cnc2c(N)nc(C#CC3(O)CC4CCC3C4)nc21 (single isomer, unassigned) [Compound 60, 2-{2-[Hydroxy-norbornan-2-yl]ethyn-1-yl}-9-propargyladenine]",< 0.1
2,"C#CCn1cnc2c(N)nc(C#CC3(O)CC4CCC3C4)nc21 (single isomer, unassigned) [Compound 61, 2-{2-[Hydroxy-norbornan-2-yl]ethyn-1-yl}-9-propargyladenine]",< 0.1
3,"C[C@@H]1CCC[C@@](O)(C#Cc2nc(N)c3ncn(CC4CC4)c3n2)C1 [Compound 1, 9-Cyclopropylmethyl-2-{2-[1(S)-hydroxy-3(R)-methyl-1-cyclohexyl]ethyn-1-yl}adenine]",< 0.1
4,"C[C@@H]1CCC[C@@](O)(C#Cc2nc(N)c3ncn(CC#N)c3n2)C1 [Compound 4, 9-Acetonitrile-2-{2-[1(S)-hydroxy-3(R)-methyl-1-cyclohexyl]ethyn-1-yl}adenine]",< 0.1
5,"Cc1noc(C)c1Cn1cnc2c(N)nc(C#C[C@]3(O)CCC[C@@H](C)C3)nc21 [Compound 8, 9-(3,5-Dimethyl-isoxazol-4-ylmethyl)-2-{2-[1(S)-hydroxy-3(R)-methyl-1-cyclohexyl]ethyn-1-yl}adenine]",< 0.1
6,C[C@@H]1CCC[C@@](O)(C#Cc2nc(N)c3ncn(CC#Cc4cccs4)c3n2)C1 [Compound 10],< 0.5
7,"CCCn1cnc2c(NC(CC)CC)nc(C#C[C@]3(O)CCC[C@@H](C)C3)nc21 [Compound 12, 2-{2-[1(S)-Hydroxy-3(R)-methyl-1-cyclohexyl]ethyn-1-yl}-N6-(3-pentyl)-9-propyladenine]",< 0.1
8,"CCC(CC)Nc1nc(C#C[C@]2(O)CCC[C@@H](C)C2)nc2c1ncn2CC(C)C [Compound 13, 9-Isobutyl-2-{2-[1(S)-hydroxy-3(R)-methyl-1-cyclohexyl]ethyn-1-yl}-N6-(3-pentyl)adenine]",< 0.5
9,"CCC(CC)Nc1nc(C#C[C@]2(O)CCC[C@@H](C)C2)nc2c1ncn2CC1CC1 [Compound 14, 9-Cyclopropylmethyl-2-{2-[1(S)-hydroxy-3(R)-methyl-1-cyclohexyl]ethyn-1-yl}-N6-(3-pentyl)adenine]",< 0.1
10,"CCC(CC)Nc1nc(C#C[C@]2(O)CCC[C@@H](C)C2)nc2c1ncn2C1CCCC1 [Compound 15, 9-Cyclopentyl-2-{2-[1(S)-hydroxy-3(R)-methyl-1-cyclohexyl]ethyn-1-yl}-N6-(3-pentyl)adenine]",< 0.1
11,"C=CCn1cnc2c(NC(CC)CC)nc(C#C[C@]3(O)CCC[C@@H](C)C3)nc21 [Compound 16, 9-Allyl-2-{2-[1(S)-hydroxy-3(R)-methyl-1-cyclohexyl]ethyn-1-yl}-N6-(3-pentyl)adenine]",< 0.1
12,"C#CCCCn1cnc2c(NC(CC)CC)nc(C#C[C@]3(O)CCC[C@@H](C)C3)nc21 [Compound 18, 2-{2-[1(S)-Hydroxy-3(R)-methyl-1-cyclohexyl]ethyn-1-yl}-N6-(3-pentyl)-9-(pent-4-yne)adenine]",< 0.1
13,"CCC(CC)Nc1nc(C#C[C@]2(O)CCC[C@@H](C)C2)nc2c1ncn2CCO [Compound 19, 9-(2-Hydroxyethyl)-2-{2-[1(S)-hydroxy-3(R)-methyl-1-cyclohexyl]ethyn-1-yl}-N6-(3-pentyl)adenine]",< 0.1
14,"CCC(CC)Nc1nc(C#C[C@]2(O)CCC[C@@H](C)C2)nc2c1ncn2CCCO [Compound 20, 2-{2-[1(S)-Hydroxy-3(R)-methyl-1-cyclohexyl]ethyn-1-yl}-9-(3-hydroxypropyl)-N6-(3-pentyl)adenine]",< 0.5
15,"CCC(CC)Nc1nc(C#C[C@]2(O)CCC[C@@H](C)C2)nc2c1ncn2CC1OCCO1 [Compound 22, 9-([1,3]-Dioxolan-2-ylmethyl)-2-{2-[1(S)-hydroxy-3(R)-methyl-1-cyclohexyl]ethyn-1-yl}-N6-(3-pentyl)adenine]",< 0.5
16,"CCOC(=O)Cn1cnc2c(NC(CC)CC)nc(C#C[C@]3(O)CCC[C@@H](C)C3)nc21 [Compound 25, 9-(Acetic acid ethyl ester)-2-{2-[1(S)-hydroxy-3(R)-methyl-1-cyclohexyl]ethyn-1-yl}-N6-(3-pentyl)adenine]",< 0.5
17,"CCC(CC)Nc1nc(C#C[C@]2(O)CCC[C@@H](C)C2)nc2c1ncn2Cc1ccccc1 [Compound 27, 9-Benzyl-2-{2-[1(S)-hydroxy-3(R)-methyl-1-cyclohexyl]ethyn-1-yl}-N6-(3-pentyl)adenine]",< 0.1
18,"CCC(CC)Nc1nc(C#C[C@]2(O)CCC[C@@H](C)C2)nc2c1ncn2Cc1cccnc1 [Compound 28, 2-{2-[1(S)-Hydroxy-3(R)-methyl-1-cyclohexyl]ethyn-1-yl}-N6-(3-pentyl)-9-(pyridin-3-ylmethyl)adenine]",< 0.1
19,"CCC(CC)Nc1nc(C#C[C@]2(O)CCC[C@@H](C)C2)nc2c1ncn2Cc1c(C)noc1C [Compound 30, 9-(3,5-Dimethyl-isoxazol-4-ylmethyl)-2-{2-[1(S)-hydroxy-3(R)-methyl-1-cyclohexyl]ethyn-1-yl}-N6-(3-pentyl)adenine]",< 0.1
20,"C#CCn1cnc2c(N[C@@H](C)CC)nc(C#C[C@]3(O)CCC[C@@H](C)C3)nc21 [Compound 32, N6-[(S)-(+)-sec-Butyl]-2-{2-[1(S)-hydroxy-3(R)-methyl-1-cyclohexyl]ethyn-1-yl}-9-propargyl-adenine]",< 0.1
21,"CC[C@H](C)Nc1nc(C#C[C@]2(O)CCC[C@@H](C)C2)nc2c1ncn2Cc1c(C)noc1C [Compound 33, N6-[(s)-(+)-sec-Butyl]-9-(3,5-dimethyl-isoxazol-4-ylmethyl)-2-{2-[1(S)-hydroxy-3(R)-methyl-1-cyclohexyl]ethyn-1-yl}adenine]",< 0.1
22,"C[C@@H]1CCC[C@@](O)(C#Cc2nc(NCC(c3ccccc3)c3ccccc3)c3ncn(C)c3n2)C1 [Compound 34, N6-(2-Diphenylethyl)-2-{2-[1(S)-hydroxy-3(R)-methyl-1-cyclohexyl]ethyn-1-yl}-9-methyladenine]",< 0.5
23,"C#CCn1cnc2c(N[C@@H](C)c3cccc4ccccc34)nc(C#C[C@]3(O)CCC[C@@H](C)C3)nc21 [Compound 35, 2-{2-[1(S)-Hydroxy-3(R)-methyl-1-cyclohexyl]ethyn-1-yl}-N6-[(s)-(−)-alpha-napthalen-1-yl-ethyl]-9-(propargyl)adenine]",< 0.5
24,"C#CCn1cnc2c(NCc3cccc(OC)c3)nc(C#C[C@]3(O)CCC[C@@H](C)C3)nc21 [Compound 36, 2-{2-[1(S)-Hydroxy-3(R)-methyl-1-cyclohexyl]ethyn-1-yl}-N6-(3-methoxybenzyl)-9-(propargyl)adenine]",< 0.1
25,"C#CCn1cnc2c(NCc3ccccn3)nc(C#C[C@]3(O)CCC[C@@H](C)C3)nc21 [Compound 37, 2-{2-[1(S)-Hydroxy-3(R)-methyl-1-cyclohexyl]ethyn-1-yl}-9-(propargyl)-N6-(pyridin-2-ylmethyl)adenine]",< 0.1
26,"Cn1cnc2c(N)nc(C#CC3(O)C4CC5CC(C4)CC3C5)nc21 (stereo not shown) [Compound 39, 2-{2-[Hydroxy-adamantan-2-yl]ethyn-1-yl}-9-methyladenine]",< 0.1
27,"CCn1cnc2c(N)nc(C#CC3(O)C4CC5CC(C4)CC3C5)nc21 (stereo not shown) [Compound 40, 9-Ethyl-2-{2-[hydroxy-adamantan-2-yl]ethyn-1-yl}adenine]",< 0.1
28,"CCCn1cnc2c(N)nc(C#CC3(O)C4CC5CC(C4)CC3C5)nc21 (stereo not shown) [Compound 41, 2-{2-[Hydroxy-adamantan-2-yl]ethyn-1-yl}-9-propyladenine]",< 0.1
